# Data as given in ChEMBL document CHEMBL1201862, “PubChem BioAssay data set” (2004).
#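 1) Cells in 96-well plates. 2) Compound, 48 h, 5 concentrations. 3) Linear interpolation between surrounding doses. 4) Unreached endpoint = highest concentration. GI50 marks 50% less growth.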 The source made the active and inactive calls. Cut-off read from the data, not from the text of the source: active = GI50 up to about 1.1 µM and inactive = higher.
# Assays:
# Test in all cases: NCI-60 cell line screen, 48 h
# HCT-15 = tested on: HCT-15
# SF-295 = tested on: SF-295
# UACC-257 = tested on: UACC-257
# SK-MEL-2 = tested on: SK-MEL-2
# OVCAR-5 = tested on: OVCAR-5
# SK-OV-3 = tested on: SK-OV-3
# 786-0 = tested on: 786-0
# M14 = tested on: M14
# ACHN = tested on: ACHN
# UACC-62 = tested on: UACC-62
# NCI-H460 = tested on: NCI-H460
# SNB-75 = tested on: SNB-75
# TK-10 = tested on: TK-10
# SW-620 = tested on: SW-620
# DU-145 = tested on: DU-145
# MDA-MB-435 = tested on: MDA-MB-435
# MCF7 = tested on: MCF7
# NCI/ADR-RES = tested on: NCI/ADR-RES
SMILES,GI50 (HCT-15) [µM],GI50 (SF-295),GI50 (UACC-257),GI50 (SK-MEL-2),GI50 (OVCAR-5),GI50 (SK-OV-3),GI50 (786-0),GI50 (M14),GI50 (ACHN),GI50 (UACC-62),GI50 (NCI-H460),GI50 (SNB-75),GI50 (TK-10),GI50 (SW-620),GI50 (DU-145),GI50 (MDA-MB-435),GI50 (MCF7),GI50 (NCI/ADR-RES)
CCO/C=C/C(C)C1(C(=O)OCC)CCCCC1=O (centres undefined),63.1,> 100 µM (inactive),> 100 µM (inactive),> 100 µM (inactive),> 100 µM (inactive),> 100 µM (inactive),56.8 µM (inactive),> 100 µM (inactive),> 100 µM (inactive),> 100 µM (inactive),> 100 µM (inactive),> 100 µM (inactive),> 100 µM (inactive),–,–,–,–,–
Oc1ccc2c3c1OC1C(=NN=C4CCC5(O)C6Cc7ccc(O)c8c7C5(CCN6CC5CC5)C4O8)CCC4(O)C(C2)N(CC2CC2)CCC314 (centres undefined),> 100,17 µM (inactive),20.4 µM (inactive),13.9 µM (inactive),> 100 µM (inactive),> 51.3 µM (inactive),24.9 µM (inactive),18.3 µM (inactive),> 100 µM (inactive),20.5 µM (inactive),21.6 µM (inactive),41.6 µM (inactive),> 46.2 µM (inactive),20.8 µM (inactive),–,–,–,–
O=C1CCCC/C(=C/c2ccccc2)N1,> 100,> 100 µM (inactive),> 100 µM (inactive),> 100 µM (inactive),> 100 µM (inactive),> 100 µM (inactive),> 100 µM (inactive),> 100 µM (inactive),> 100 µM (inactive),> 100 µM (inactive),> 100 µM (inactive),56.6 µM (inactive),> 100 µM (inactive),> 100 µM (inactive),–,–,–,–
COc1ccc(OC)c(NC(=O)CCC/C(CC(=O)c2ccc(O)c(OC)c2)=N\Nc2ccc([N+](=O)[O-])cc2)c1,> 100,52.8 µM (inactive),> 100 µM (inactive),51.8 µM (inactive),> 100 µM (inactive),39 µM (inactive),27.6 µM (inactive),> 100 µM (inactive),80.4 µM (inactive),48.8 µM (inactive),> 100 µM (inactive),22.5 µM (inactive),50.2 µM (inactive),> 100 µM (inactive),–,–,–,–
O=C1NC2(CCN(CCCC3(c4ccc(F)cc4)OCCO3)CC2)Oc2ccccc21,71.4,> 100 µM (inactive),57.3 µM (inactive),–,> 100 µM (inactive),> 100 µM (inactive),> 100 µM (inactive),73.5 µM (inactive),> 100 µM (inactive),> 100 µM (inactive),91.2 µM (inactive),43.1 µM (inactive),> 100 µM (inactive),> 100 µM (inactive),> 100 µM (inactive),> 100 µM (inactive),86.7 µM (inactive),97.9 µM (inactive)
NC1=NN(c2ccccc2)C(=O)C1C(=O)C(=O)Nc1nccs1 (centres undefined),> 100,> 100 µM (inactive),> 100 µM (inactive),> 100 µM (inactive),> 100 µM (inactive),> 100 µM (inactive),> 100 µM (inactive),> 100 µM (inactive),> 100 µM (inactive),> 100 µM (inactive),> 100 µM (inactive),62.1 µM (inactive),> 100 µM (inactive),> 100 µM (inactive),–,–,–,–
O=C(C(=O)N1CC2C=CC1CC2)c1c[nH]c2ccccc12 (centres undefined),> 100,> 100 µM (inactive),> 100 µM (inactive),> 100 µM (inactive),> 100 µM (inactive),> 100 µM (inactive),> 100 µM (inactive),> 100 µM (inactive),> 100 µM (inactive),> 100 µM (inactive),> 100 µM (inactive),82.4 µM (inactive),> 100 µM (inactive),> 100 µM (inactive),–,–,–,–
O=C1O/C(=C(\Br)c2cccc3ccccc23)c2ccccc21,31.3,> 38.1 µM (inactive),> 40.9 µM (inactive),> 42.8 µM (inactive),> 40.2 µM (inactive),> 39.8 µM (inactive),17.4 µM (inactive),> 44.2 µM (inactive),34.2 µM (inactive),35.2 µM (inactive),> 53.6 µM (inactive),> 50.4 µM (inactive),30.4 µM (inactive),27 µM (inactive),–,–,–,–
N/N=C1\C(=O)N(c2ccc(Cl)cc2Cl)C(=O)C(=O)C1c1nc2ccccc2o1 (centres undefined),> 100,> 100 µM (inactive),> 100 µM (inactive),95.7 µM (inactive),> 100 µM (inactive),> 100 µM (inactive),> 100 µM (inactive),> 100 µM (inactive),> 100 µM (inactive),11.4 µM (inactive),> 100 µM (inactive),> 100 µM (inactive),> 100 µM (inactive),> 100 µM (inactive),–,–,–,–
Cc1ccc2nc(NC(=O)C(=O)C(C(=O)c3ccc4ccccc4c3)C3OC(=O)c4ccccc43)sc2c1 (centres undefined),> 10,4.61 µM (inactive),13.1 µM (inactive),14.4 µM (inactive),11.6 µM (inactive),29.9 µM (inactive),6.15 µM (inactive),15 µM (inactive),16.5 µM (inactive),6.98 µM (inactive),4.43 µM (inactive),–,–,5.86 µM (inactive),–,–,–,–
COc1ccc(-c2cc(=O)c3ccccc3[nH]2)c(OC)c1,> 100,> 100 µM (inactive),> 100 µM (inactive),–,–,> 100 µM (inactive),> 100 µM (inactive),> 100 µM (inactive),> 100 µM (inactive),> 100 µM (inactive),> 100 µM (inactive),> 100 µM (inactive),> 100 µM (inactive),> 100 µM (inactive),–,–,–,–
CC(=O)O[C@H]1CC[C@@]2(C)C(=CC[C@@H]3C2CC[C@]2(C)Nc4[nH]ncc4CC32)C1 (some centres undefined),17.5,42.2 µM (inactive),16.6 µM (inactive),28.2 µM (inactive),> 100 µM (inactive),> 100 µM (inactive),> 100 µM (inactive),19.7 µM (inactive),> 100 µM (inactive),26.1 µM (inactive),17.3 µM (inactive),85.9 µM (inactive),> 100 µM (inactive),34.8 µM (inactive),–,–,–,–
CC(C)(C)C1CC[C@H]2c3c([nH]c4ccc(Br)cc34)[C@H]3C(=O)N(c4ccccc4)C(=O)[C@H]3[C@H]2C1 (some centres undefined),–,14 µM (inactive),> 100 µM (inactive),50.9 µM (inactive),> 100 µM (inactive),21.7 µM (inactive),6.67 µM (inactive),22 µM (inactive),> 100 µM (inactive),23.3 µM (inactive),8.09 µM (inactive),18.5 µM (inactive),48.9 µM (inactive),17.4 µM (inactive),–,–,–,–
CCC(C)Cn1c(C)nc2c1C(=O)c1ccccc1C2=O (centres undefined),17.5,38.8 µM (inactive),23.5 µM (inactive),33.1 µM (inactive),–,54.3 µM (inactive),23.1 µM (inactive),42.3 µM (inactive),36.1 µM (inactive),9.98 µM (inactive),14.8 µM (inactive),28.6 µM (inactive),41.4 µM (inactive),38.7 µM (inactive),–,–,–,–
CCCCCCCCCCCCOP(N)(=O)OCCCCCCCCCCCC,> 100,> 100 µM (inactive),> 100 µM (inactive),–,–,> 100 µM (inactive),> 100 µM (inactive),> 100 µM (inactive),> 100 µM (inactive),> 100 µM (inactive),> 100 µM (inactive),> 100 µM (inactive),> 100 µM (inactive),> 100 µM (inactive),–,–,–,–
CC1(C)C(=O)C(C)(C)C1=S,> 100,> 100 µM (inactive),> 100 µM (inactive),> 100 µM (inactive),> 100 µM (inactive),> 100 µM (inactive),> 100 µM (inactive),> 100 µM (inactive),> 100 µM (inactive),> 100 µM (inactive),> 100 µM (inactive),18.6 µM (inactive),> 100 µM (inactive),> 100 µM (inactive),–,–,–,–
CCOP(=O)(C/C(O)=C1\C(=O)C(CCCNC(=O)OC(C)(C)C)N(Cc2ccc(OC)c(OC)c2)C1=O)OCC (centres undefined),–,> 100 µM (inactive),> 100 µM (inactive),> 100 µM (inactive),> 100 µM (inactive),–,> 100 µM (inactive),> 100 µM (inactive),> 100 µM (inactive),> 100 µM (inactive),> 100 µM (inactive),> 100 µM (inactive),> 100 µM (inactive),> 100 µM (inactive),–,–,–,–
COC(C)(C)[C@H](O)C(O)CC(C)[C@@H]1CCC23CC12CCC1[C@@]2(C)CCC(OC(C)=O)C(C)(C)C2CC(OC2OC(COC(C)=O)C(O)C(O)C2O)[C@]13C (some centres undefined),1.86,3.21 µM (inactive),3.76 µM (inactive),9.29 µM (inactive),2.34 µM (inactive),9.4 µM (inactive),6.58 µM (inactive),2.77 µM (inactive),3.76 µM (inactive),2.77 µM (inactive),2.88 µM (inactive),3.8 µM (inactive),7.23 µM (inactive),5.35 µM (inactive),–,–,–,–
